Read-outs that look alike come from different tables or passages of the source.

Common to all, as to type: cell-based
The target in experiment [1] is T1, D2 (Homo sapiens, UniProt P14416). Nature of the experiment: R-SAT broad profiling. Further details: expressed in transfected cells; host or cells: NIH3T3. To be noted: read-out: pEC50 or pIC50 (converted). The protocol:
(§1) The functional receptor assay, Receptor Selection and Amplification Technology (R-SAT), was used (with minor modifications from that previously described U.S. Pat. No. 5,707,798) to screen compounds for efficacy at the 5-HT2A receptor. Briefly, NIH3T3 cells were grown in 96 well tissue culture plates to 70-80% confluence. Cells were transfected for 12-16 hours with plasmid DNAs using superfect (Qiagen Inc.) as per manufacture's protocols. R-SAT's were generally performed with 50 ng/well of receptor and 20 ng/well of Beta-galactosidase plasmid DNA. All receptor and G-protein constructs used were in the pSI mammalian expression vector (Promega Inc) as described in U.S. Pat. No. 5,707,798. The 5HT2A receptor gene was amplified by nested PCR from brain cDNA using the oligodeoxynucleotides based on the published sequence (see Saltzman et. al. Biochem. Biophys. Res. Comm. 181:1469-78 (1991)). Large-scale transfections, cells were transfected for 12-16 hours, then trypsinized and frozen in DMSO. Frozen cells were later thawed, plated at 10,000-40,000 cells per well of a 96 well plate that contained drug. With both methods, cells were then grown in a humidified atmosphere with 5% ambient CO2 for five days. Media was then removed from the plates and marker gene activity was measured by the addition of the beta-galactosidase substrate ONPG (in PBS with 5% NP-40). The resulting colorimetric reaction was measured in a spectrophotometric plate reader (Titertek Inc.)at […]. All data were analyzed using the computer program XLFit (IDBSm). Efficacy is the percent maximal repression compared to repression by a control compound (ritanserin in the case of 5HT2A). pIC50 is the negative of the log(IC50), where IC50 is the calculated concentration in Molar that produces 50% maximal repression.
(§2) The R-SAT assay (described above in example 289) was used to investigate the selectivity of 4-(4-Fluoro-benzyl)-3-(4-isobutoxy-benzyl)-8-methyl-1-oxa-3,8-diaza-spiro[4.5]decan-2-one.

The target of experiment [2] is T2, 5HT1F (Homo sapiens, UniProt P30939).
T2 sequence (P30939 1-366): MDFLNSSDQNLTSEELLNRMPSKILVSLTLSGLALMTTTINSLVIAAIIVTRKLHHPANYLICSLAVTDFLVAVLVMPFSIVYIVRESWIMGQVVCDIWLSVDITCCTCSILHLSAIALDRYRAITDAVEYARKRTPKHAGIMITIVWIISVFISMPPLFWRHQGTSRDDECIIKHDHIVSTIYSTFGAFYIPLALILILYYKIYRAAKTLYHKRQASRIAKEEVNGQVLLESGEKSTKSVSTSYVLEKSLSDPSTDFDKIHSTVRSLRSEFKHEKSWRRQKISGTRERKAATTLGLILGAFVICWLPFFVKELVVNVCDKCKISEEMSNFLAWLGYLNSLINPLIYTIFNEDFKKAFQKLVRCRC
Nature of the experiment: R-SAT broad profiling. To be noted: read-out: pEC50 or pIC50 (converted). Also noted: expressed in transfected cells; host or cells: NIH3T3. The protocol: as §1, §2

Experiment [3] deals with 5HT1B (Homo sapiens, UniProt P28222). In words: R-SAT broad profiling. Further details: expressed in transfected cells; host or cells: NIH3T3. The note with it: read-out: pEC50 or pIC50 (converted). The method, then: as §1, §2
5HT1B, sequence (P28222 whole entry, species assumed): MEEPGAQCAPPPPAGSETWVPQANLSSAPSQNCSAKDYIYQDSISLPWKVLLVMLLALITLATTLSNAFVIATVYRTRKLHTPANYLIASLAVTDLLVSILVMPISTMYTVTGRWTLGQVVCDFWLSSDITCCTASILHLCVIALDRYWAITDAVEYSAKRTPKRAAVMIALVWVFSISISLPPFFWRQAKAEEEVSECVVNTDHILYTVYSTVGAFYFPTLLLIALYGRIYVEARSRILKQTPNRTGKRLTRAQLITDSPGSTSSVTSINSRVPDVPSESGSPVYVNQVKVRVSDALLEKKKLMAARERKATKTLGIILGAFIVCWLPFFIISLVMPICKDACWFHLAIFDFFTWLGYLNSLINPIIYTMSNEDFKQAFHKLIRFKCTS
Experiment [4] deals with T3, 5HT1A (Homo sapiens, UniProt P08908).
T3 sequence (P08908 1-422): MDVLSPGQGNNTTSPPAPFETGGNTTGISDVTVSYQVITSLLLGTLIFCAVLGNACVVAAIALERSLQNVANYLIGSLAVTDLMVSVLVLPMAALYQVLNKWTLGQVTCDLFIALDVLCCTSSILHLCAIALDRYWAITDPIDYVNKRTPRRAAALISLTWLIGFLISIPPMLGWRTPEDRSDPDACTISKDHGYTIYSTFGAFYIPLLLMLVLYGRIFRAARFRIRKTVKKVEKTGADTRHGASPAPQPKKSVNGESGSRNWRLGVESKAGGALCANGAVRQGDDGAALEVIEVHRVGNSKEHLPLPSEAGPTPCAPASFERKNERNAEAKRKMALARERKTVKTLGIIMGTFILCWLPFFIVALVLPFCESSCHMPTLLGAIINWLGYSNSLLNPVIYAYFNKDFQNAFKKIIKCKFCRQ
Nature of the experiment: R-SAT broad profiling. Further details: expressed in transfected cells; host or cells: NIH3T3. The note with it: agonist; read-out: pEC50 or pIC50 (converted). The method, then:
as §1, §2

Experiment [5] concerns the target T4, 5-HT2A receptor (Homo sapiens, UniProt P28223).
T4 construct: expressed in transfected cells; host or cells: NIH3T3 cells, pSI expression vector
Nature of the experiment: R-SAT functional receptor assay. The note with it: for EC50: agonist.

Experiment [6] concerns the target T1, D2. In words: R-SAT broad profiling. Also noted: expressed in transfected cells; host or cells: NIH3T3. The note with it: read-out: pEC50/pIC50 (converted). The method, then:
as §1, with “Frozen cells were later thawed, plated at 10,000-40,000 cells per well of a 96 well plate that contained drug. With both methods, cells were then grown in a humidified atmosphere with 5% ambient CO2 for five days.” left out, “Efficacy is the percent maximal repression compared to repression by a control compound (ritanserin in the case of 5HT2A). pIC50 is the negative of the log(IC50), where IC50 is the calculated concentration in Molar that produces 50% maximal repression.” left out

T4 sequence (P28223 whole entry): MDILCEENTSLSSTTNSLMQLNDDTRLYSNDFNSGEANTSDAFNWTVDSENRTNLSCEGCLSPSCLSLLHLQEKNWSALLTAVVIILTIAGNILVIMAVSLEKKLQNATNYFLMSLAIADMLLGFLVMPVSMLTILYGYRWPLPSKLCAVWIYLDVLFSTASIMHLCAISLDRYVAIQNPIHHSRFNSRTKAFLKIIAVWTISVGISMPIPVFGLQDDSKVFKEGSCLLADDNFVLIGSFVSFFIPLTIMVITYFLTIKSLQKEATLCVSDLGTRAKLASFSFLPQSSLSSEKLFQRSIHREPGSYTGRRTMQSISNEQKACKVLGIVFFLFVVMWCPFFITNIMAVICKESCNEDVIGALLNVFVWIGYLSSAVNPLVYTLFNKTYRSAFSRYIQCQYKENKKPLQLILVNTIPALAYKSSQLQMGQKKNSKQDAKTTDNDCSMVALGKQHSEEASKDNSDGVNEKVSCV
T1 sequence (P14416 whole entry): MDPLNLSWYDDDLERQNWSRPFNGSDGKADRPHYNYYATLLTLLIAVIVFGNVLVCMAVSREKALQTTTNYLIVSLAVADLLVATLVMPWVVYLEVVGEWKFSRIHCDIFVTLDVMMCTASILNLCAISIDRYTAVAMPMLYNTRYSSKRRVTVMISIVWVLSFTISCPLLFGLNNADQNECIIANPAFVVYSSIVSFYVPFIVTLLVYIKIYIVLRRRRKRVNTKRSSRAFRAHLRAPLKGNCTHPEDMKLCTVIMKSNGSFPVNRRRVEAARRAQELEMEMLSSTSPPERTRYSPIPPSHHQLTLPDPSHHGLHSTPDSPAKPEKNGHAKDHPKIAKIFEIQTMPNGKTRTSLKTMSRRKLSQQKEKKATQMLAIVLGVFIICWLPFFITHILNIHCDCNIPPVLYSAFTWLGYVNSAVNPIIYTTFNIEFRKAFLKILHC

With `CC(C)COc1ccc(CN2C(=O)OC3(CCN(C)CC3)C2Cc2ccc(F)cc2)cc1.Cl` (racemic) [Example 69NLS75, 4-(4-Fluorobenzyl)-3-(4-isobutoxybenzyl)-8-methyl-1-oxa-3,8-diazaspiro[4.5]decan-2-one, hydrochloride], the EC50 in experiment [1] (agonist), in experiment [2] (agonist), in experiment [3] (agonist), in experiment [4] and in experiment [5] (read-out: pEC50 or pIC50 (converted)) was above 3.16 µM each time. Further, the IC50 in experiment [1] (antagonist), in experiment [2] (antagonist) and in experiment [3] (antagonist) was above 3.16 µM throughout. For the same compound, the 5HT2A % inhibition in experiment [5] (compared to ritanserin) is listed as 94%. Also, the efficacy in brackets in experiment [5] (inverse) is recorded as 94%.

Consider `COc1ccc(CC(=O)N(Cc2ccc(C)cc2)C2CCN(C)CC2)cc1` [Example 50ELH27, 2-(4-Methoxyphenyl)-N-(4-methylbenzyl)-N-(1-methylpiperidin-4-yl)acetamide], for which the Emax in experiment [5] (120 h, read-out: Percent Efficacy, compared to ritanserin) worked out at 108%. Besides, the IC50 in experiment [5] (Table 3, read-out: pIC50 (converted)) is 0.002 µM; in experiment [5] (inverse agonist, read-out: pEC50/pIC50 (converted)) it was 0.00158 µM; in experiment [6] (antagonist) it was above 3.16 µM. The EC50 in experiment [5] (read-out: pEC50/pIC50 (converted)) and in experiment [6] (agonist) was above 3.16 µM throughout.

Source of the values: patent US20080051429A1, “USE OF 4-AMINO-PIPERIDINES FOR TREATING SLEEP DISORDERS” (priority 2006, published 2008).
